The values that follow come from article PMC11189516, “Structure-guided conversion from an anaplastic lymphoma kinase inhibitor into Plasmodium lysyl-tRNA synthetase selective inhibitors” (Communications Biology, 2024).

In general, IC50 refers to the midpoint of a concentration-inhibition curve. A word on the ΔTm: it is the change in melting temperature against a reference sample. One may read the % Inhibition as the relative decrease from the control value, in per cent. As a reminder, the EC50 is the concentration at which the effect is half-maximal. A high value points to lower potency in that assay.

Values joined by “and” are separate entries in the source; they are usually repeats but may differ in a detail not shown here. Equal values may be shown once. A value given as a limit tells only on which side of the number the result lay.

The target of assay [1] is T1, PfLysRS (Plasmodium falciparum, UniProt Q8IDJ8).
T1 construct: PfLysRS (77–583) was constructed in the vector pET20b, with a C-terminal 6×His tag; 6xHis (C); made in house; host or cells: E. coli BL21 (DE3)
Nature of the assay: Thermal shift assay. In kind it is binding. The settings on record: for ΔTm of PfLysRS / ΔTm at 200 µM: in the presence of L-lysine. On the procedure:
PfLysRS protein was prepared at 10 μM concentration in a buffer containing 20 mM Tris pH 8.0, 200 mM NaCl, 500 μM L-lysine, and 200 μM Compound. Aliquots (18 µL) were added to a 96-well PCR plate and incubated at ambient temperature for 10 min. SYPRO Orange dye (Sigma) was diluted in the assay buffer containing 20 mM Tris pH 8.0 and 200 mM NaCl to a 40× concentration, and 2 µL of the 40× dye solution was added to the PCR plate to bring the final assay volume to 20 µL. After complete mixing, the final solutions were heated from 25 to 90 °C at a rate of 0.015 °C per sec, and fluorescence signals were monitored by QuantStudio 3 (Applied Biosystems by Thermo Fisher Scientific).

The target in assay [2] is T1, PfLysRS. Description: ATP hydrolysis assay (Kinase-Glo) on PfLysRS. In kind it is biochemical. The settings on record: read-out: IC50 against PfLysRS. On the procedure: (§1) The ATP hydrolysis assays were based on Kinase-Glo luminescent Kit (Promega). The experiment was carried out in Corning 384-well white flat bottom microplates. The buffer in the reaction contains 25 mM Hepes pH 7.4, 140 mM NaCl, 40 mM MgCl2, 30 mM KCl, 1 mM TCEP, 0.1 mg·mL^−1 BSA, and 0.004% Tween-20. The compounds were diluted to different concentrations with a 5-fold gradient.
(§2) For LysRS assays, DMSO was added into negative control wells and L-lysine was removed in positive control wells. 100 nM LysRS in 2.5 μL Hepes buffer was mixed with compounds and incubated for 10 min. Then 5 μL substrate mixture (2 μM ATP, 10 μM L-lysine and 31 nM pyrophosphatase) was added to start the reaction at 37 °C and incubated for 6 h.
(§3) When the reaction reaches the planned time, 10 μL diluted Kinase-Glo reagent (1/50 diluted with a buffer containing 50 mM Tris pH 7.5 and 5% glycerol) was added and incubated for 15 min. Luminescence was measured on the Magellan plate reader (Tecan) and nonlinear regression was performed with Prism (GraphPad).
(In general: Kinase-Glo reads ATP consumption through a luciferase reaction.)

The target in assay [3] is T2, HsLysRS (Homo sapiens, UniProt Q15046).
T2 construct: HsLysRS (70–581) was constructed in the vector pET20b with a C-terminal 6×His tag; 6xHis (C); made in house; host or cells: E. coli (pET20b; 'purified similarly' to PfLysRS, which was expressed in BL21 (DE3))
Description: ATP hydrolysis assay (Kinase-Glo) on HsLysRS. In kind it is biochemical. The conditions noted are these: read-out: IC50 against HsLysRS. On the procedure: as §1, §2, §3

Assay [4] deals with T3, ALK (Homo sapiens, UniProt Q9UM73).
T3 construct: The plasmid pCDNA3.1_8×His-tev-ALK (kinase domain, 1068–1410) was constructed; 8xHis (N); TEV site (N); made in house; host or cells: Expi293 cells (transient transfection)
Description: ATP hydrolysis assay (Kinase-Glo) on ALK. In kind it is biochemical. The conditions noted are these: read-out: IC50 against ALK. On the procedure:
as §1
For ALK assays, DMSO was added into negative control wells. 100 nM ALK in 2.5 μL Hepes buffer was mixed with compounds and incubated for 10 min. Then 5 μL substrate (2 μM ATP) was added to start the reaction at 37 °C and incubated for 6 h.
as §3

Assay [5] deals with erythrocytic-stage P. falciparum 3D7 parasites. Nature of the assay: In vitro Plasmodium growth assay. In kind it is cell-based, Plasmodium falciparum. The settings on record: for HillSlope (best-fit value): Plasmodium falciparum 3D7; for LogIC50 (best-fit value): Plasmodium falciparum 3D7, log of nM; for IC50: Plasmodium falciparum 3D7, source data, read-out: IC50 (best-fit value); for EC50: Plasmodium falciparum, 3D7, 72 h. As to the method: Parasites were cultured in human O+ erythrocytes according to standard procedures. To prepare the >80% ring stage parasites, asynchronous cultures of parasites were pretreated with 5% sorbitol, and P. falciparum strain 3D7 at the mid-ring stage (6–10 h post-invasion) was used to test antimalarial effects in 96-well plates. Parasites were incubated in a 96-well plate with compound containing 1% parasitemia and, 2% hematocrit for a total volume of 200 μL. […] A relevant DMSO concentration was used as a negative control, and cultured erythrocytes without Plasmodium served as a positive control. The parasites were allowed to grow for 72 h at 37 °C with 5% CO2, 5% O2, and 90% N2. After 72 h, 100 μL of lysis buffer (0.12 mg·mL^−1 Saponin, 0.12% Triton X-100, 30 mM Tris-HCl pH 8.0, and 7.5 mM EDTA) with 5× SYBR Green I (Invitrogen; supplied in 10000× concentration) was added to each well of the plate. The plates were then incubated for 2 h in the dark prior to reading the fluorescence signal at 485 nm excitation and 535 nm emission. The percentage of inhibition was calculated by (NC-fluorescence) × 100/(NC-PC).

The mark [6] stands for this setting: +Lysine, sheet Figure 6B, in °C (unit assumed).
Setting [7] is: P. falciparum 3D7, Log(Concentration)/nM 3.193, single repeats.
Setting [8] is: P. falciparum 3D7, Log(Concentration)/nM 3.496, single repeats.
Where [9] appears, read: P. falciparum 3D7, Log(Concentration)/nM 3.796, single repeats.
[10] abbreviates: P. falciparum 3D7, Log(Concentration)/nM 4.097, single repeats.
[11] abbreviates: P. falciparum 3D7, Log(Concentration)/nM 4.398, single repeats.
Setting [12] is: P. falciparum 3D7, Log(Concentration)/nM 4.699, single repeats.
Setting [13] is: P. falciparum 3D7, Log(Concentration)/nM 5.000, single repeats.

T2 sequence (Q15046 70-581): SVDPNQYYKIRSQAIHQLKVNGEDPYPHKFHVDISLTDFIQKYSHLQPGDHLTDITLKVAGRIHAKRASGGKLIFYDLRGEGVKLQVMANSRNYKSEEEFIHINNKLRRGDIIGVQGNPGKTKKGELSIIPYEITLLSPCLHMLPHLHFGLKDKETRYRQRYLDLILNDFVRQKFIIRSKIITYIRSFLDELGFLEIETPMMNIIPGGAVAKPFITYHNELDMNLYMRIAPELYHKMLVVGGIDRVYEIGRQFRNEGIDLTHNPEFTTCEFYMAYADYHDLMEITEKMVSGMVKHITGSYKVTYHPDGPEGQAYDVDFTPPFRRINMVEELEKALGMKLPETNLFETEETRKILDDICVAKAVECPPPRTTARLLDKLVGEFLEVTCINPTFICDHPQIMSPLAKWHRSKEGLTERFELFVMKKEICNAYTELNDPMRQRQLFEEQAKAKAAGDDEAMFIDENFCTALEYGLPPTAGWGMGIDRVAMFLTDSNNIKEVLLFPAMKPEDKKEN
T1 sequence (Q8IDJ8 entry or part of it): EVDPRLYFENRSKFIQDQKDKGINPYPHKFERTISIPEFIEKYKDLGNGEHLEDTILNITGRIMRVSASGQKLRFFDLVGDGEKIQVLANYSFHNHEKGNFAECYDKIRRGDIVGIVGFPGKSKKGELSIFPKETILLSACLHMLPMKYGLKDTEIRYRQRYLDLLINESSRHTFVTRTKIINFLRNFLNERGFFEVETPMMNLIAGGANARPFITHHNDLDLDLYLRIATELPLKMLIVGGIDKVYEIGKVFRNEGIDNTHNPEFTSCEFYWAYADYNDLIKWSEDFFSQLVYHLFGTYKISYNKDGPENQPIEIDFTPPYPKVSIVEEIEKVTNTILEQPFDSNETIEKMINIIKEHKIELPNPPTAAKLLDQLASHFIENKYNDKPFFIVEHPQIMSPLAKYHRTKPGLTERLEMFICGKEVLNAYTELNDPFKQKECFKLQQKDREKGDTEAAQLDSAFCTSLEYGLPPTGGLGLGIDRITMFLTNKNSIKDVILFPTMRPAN
T3 sequence (Q9UM73 1068-1410): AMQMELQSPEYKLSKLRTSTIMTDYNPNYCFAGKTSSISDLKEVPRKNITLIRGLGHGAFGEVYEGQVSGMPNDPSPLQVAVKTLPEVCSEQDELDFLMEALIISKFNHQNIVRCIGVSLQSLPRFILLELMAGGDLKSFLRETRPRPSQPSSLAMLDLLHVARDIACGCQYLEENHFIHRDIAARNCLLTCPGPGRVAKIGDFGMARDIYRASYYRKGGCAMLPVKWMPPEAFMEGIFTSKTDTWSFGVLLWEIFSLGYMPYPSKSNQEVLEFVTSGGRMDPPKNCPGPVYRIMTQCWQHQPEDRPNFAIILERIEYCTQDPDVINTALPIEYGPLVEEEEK

Regarding `COc1ccc(C)cc1Nc1ncnc(Nc2ccccc2S(=O)(=O)C(C)C)n1` [Compound 39], in assay [1], the “ΔTm of PfLysRS” value was determined as 4.1 °C.

For `COc1ccc(OC)c(Nc2ncnc(Nc3ccccc3S(=O)(=O)CCCCCNC(=O)[C@@H](N)CCCCN)n2)c1` [Compound 36K5], the “△Tm of PfLysRS” value in assay [1] (+Lysine, sheet Figure 6B) is 10.740. In addition, in assay [1] (setting [6]), the “Tm of PfLysRS, Average” value came out at 55.760. Moreover, in assay [1] (setting [6]), the “Tm of PfLysRS, single repeat” value is 55.867 and 55.929 and 55.806 and 55.437. Besides, the IC50 in assay [2] was 2770 nM; in assay [3], 22 µM; in assay [4], > 66.8 µM.

Consider `COc1cc(N2CCC(N3CCN(C)CC3)CC2)ccc1Nc1ncnc(Nc2ccccc2C2C=CCCC2)n1` (centres unmarked) [Compound 31], for which, in assay [1], the “ΔTm of PfLysRS” value was 2.0 °C.

Turning to `COc1ccc(Nc2ncnc(Nc3ccccc3S(=O)(=O)C(C)C)n2)c(OC)c1` [Compound 35], the “ΔTm of PfLysRS” value in assay [1] amounted to 6.4 °C.

For `COc1cccnc1Nc1ncnc(Nc2ccccc2S(=O)(=O)C(C)C)n1` [Compound 38b], in assay [1] (+Lysine), the “Tm of PfLysRS, Average” value came to 42.100 °C; the “Tm of PfLysRS, single repeat” value was 42.223 °C and 42.193 °C and 42.039 °C and 41.946 °C. In addition, in assay [1], the ΔTm at 200 µM worked out at 2 °C.

Regarding `COc1ccc(OC(F)(F)F)cc1Nc1ncnc(Nc2ccccc2S(=O)(=O)C(C)C)n1` [Compound 42], the “ΔTm of PfLysRS” value in assay [1] stood at 1.5 °C.

Turning to `COc1ccc(OC)c(Nc2cncc(Nc3ccccc3S(=O)(=O)C(C)C)n2)c1` [Compound 36c], in assay [1], the “ΔTm of PfLysRS” value is 0 °C.

On to `COc1ccc(OC)c(Nc2ncnc(Nc3ccccc3S(=O)(=O)CCNC(=O)[C@@H](N)CCCCN)n2)c1` [Compound 36K2], for which the “Tm of PfLysRS, Average” value in assay [1] (setting [6]) is 50.650. Further, in assay [1] (setting [6]), the “Tm of PfLysRS, single repeat” value was 50.665 and 50.973 and 50.296. Besides, the values for the IC50 in assay [2], in assay [3] and in assay [4] were 365 nM, 31 µM and > 109 µM, respectively.

For `COc1ccc(OC)c(Nc2nccc(Nc3ccccc3S(=O)(=O)C(C)C)n2)c1` [Compound 36f], the “ΔTm of PfLysRS” value in assay [1] was determined as 2.4 °C.

On to `COc1ccc(OC)c(Nc2cccc(Nc3ccccc3S(=O)(=O)C(C)C)c2)c1` [Compound 36d], for which the “ΔTm of PfLysRS” value in assay [1] is −0.2 °C.

On to `COc1ccc(OC)c(Nc2cccc(Nc3ccccc3S(=O)(=O)C(C)C)n2)c1` [Compound 36b], for which, in assay [1], the “ΔTm of PfLysRS” value is 0.1 °C.

In the case of `CC(C)S(=O)(=O)c1ccccc1Nc1ncnc(Nc2ccccc2S(=O)(=O)C(C)C)n1` [Compound 37], the “ΔTm of PfLysRS” value in assay [1] came out at 0.5 °C.

For `COc1ccc(F)cc1Nc1ncnc(Nc2ccccc2S(=O)(=O)C(C)C)n1` [Compound 41], in assay [1], the “ΔTm of PfLysRS” value stood at 1.9 °C.

For `COc1cc(N2CCC(N3CCN(C)CC3)CC2)ccc1Nc1ncnc(Nc2ccccc2C2CCCCC2)n1` [Compound 32], the “ΔTm of PfLysRS” value in assay [1] came out at 4.1 °C.

Turning to `COc1ccc(OC)c(Nc2cc(Nc3ccccc3S(=O)(=O)C(C)C)ncn2)c1` [Compound 36e], the “ΔTm of PfLysRS” value in assay [1] was 3.1 °C.

`COc1ccc(C(F)(F)F)cc1Nc1ncnc(Nc2ccccc2S(=O)(=O)C(C)C)n1` [Compound 33]: in assay [1], the “ΔTm of PfLysRS” value was -0.1 °C.

As for `COc1ccc([N+](=O)[O-])cc1Nc1ncnc(Nc2ccccc2S(=O)(=O)C(C)C)n1` [Compound 40], the “ΔTm of PfLysRS” value in assay [1] was 2.5 °C.

For `COc1cnc(OC)c(Nc2ncnc(Nc3ccccc3S(=O)(=O)C(C)C)n2)c1` [Compound 36a], in assay [1], the ΔTm at 200 µM was determined as 10.7 °C. The IC50 in assay [3] worked out at 44 µM; in assay [5], 5.78 µM. The “% Inhibition” value in assay [5] (P. falciparum 3D7, Log(Concentration)/nM 2.893, single repeats) was 14.91%; in assay [5] (setting [7]), 32.52% and 24.14%; in assay [5] (setting [8]), 30.61% and 34.32%; in assay [5] (setting [9]), 39.42% and 74.11%; in assay [5] (setting [10]), 57.98% and 94.48%; in assay [5] (setting [11]) it was 81.01% and 104.5%. The “% Inhibition” value in assay [5] (setting [12]) was 93% and 107%; in assay [5] (setting [13]), 88.65% and 105.6%. The “HillSlope (best-fit value)” value in assay [5] is recorded as 1.181. Also, the “LogIC50 (best-fit value)” value in assay [5] is given as 3.762. Further, in assay [5], the EC50 stood at 5.78 ± 1.73 µM.

For `COC(=O)c1ccc(OC)c(Nc2ncnc(Nc3ccccc3S(=O)(=O)C(C)C)n2)c1` [Compound 34], the ΔTm at 200 µM in assay [1] was 7.9 °C. The “% Inhibition” value in assay [5] (P. falciparum 3D7, Log(Concentration)/nM 2.290, single repeats) is 1.182% and -0.03693% and -1.145%; in assay [5] (P. falciparum 3D7, Log(Concentration)/nM 2.592, single repeats), 1.736% and -0.03693% and 4.616%; in assay [5] (setting [7]), 62.22% and 58.01% and 53.91%; in assay [5] (setting [8]), 92.69% and 87.92% and 85.93%; in assay [5] (setting [9]) it was 98.34% and 94.68% and 94.24%; in assay [5] (setting [10]) it was 98.78% and 97.23% and 96.34%. Further, the “% Inhibition” value in assay [5] (setting [11]) is 101.2% and 100.6% and 98.23%; in assay [5] (setting [12]), 99.67% and 99.22% and 96.9%; in assay [5] (setting [13]), 94.68% and 96.01% and 94.24%. The “HillSlope (best-fit value)” value in assay [5] is reported as 2.802. Besides, in assay [5], the “LogIC50 (best-fit value)” value was determined as 3.133. Also, in assay [5], the IC50 amounted to 1.36 µM. The midpoint of the response in assay [5], the EC50, lay at 1.36 ± 0.04 µM.
